{"source": "patent US6878722B2", "about": "“Substituted cycloalkyl P1′ hepatitis C virus inhibitors” (Bristol-Myers Squibb Company, priority 2002, dated 2005)", "key": {"[1]": {"molecular_target": "T1, HCV NS3/4A protease complex (BMS strain, genotype 1a) (Hepatitis C virus genotype 1a, UniProt P27958, C1454S)", "T1 construct": "DNA encoding the recombinant HCV NS3/4A protease complex (amino acids 1027 to 1711) for these strains; inferred from the pET21b vector and Ni-NTA purification; made in house; host or cells: Escherichia coli BL21 (DE3), pET21b", "T1 sequence (P27958 1658-1714, looked up, stated change not applied)": "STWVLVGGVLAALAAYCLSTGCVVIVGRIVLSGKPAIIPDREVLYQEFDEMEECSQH", "T1 sequence (P27958 1027-1657, looked up, stated change not applied)": "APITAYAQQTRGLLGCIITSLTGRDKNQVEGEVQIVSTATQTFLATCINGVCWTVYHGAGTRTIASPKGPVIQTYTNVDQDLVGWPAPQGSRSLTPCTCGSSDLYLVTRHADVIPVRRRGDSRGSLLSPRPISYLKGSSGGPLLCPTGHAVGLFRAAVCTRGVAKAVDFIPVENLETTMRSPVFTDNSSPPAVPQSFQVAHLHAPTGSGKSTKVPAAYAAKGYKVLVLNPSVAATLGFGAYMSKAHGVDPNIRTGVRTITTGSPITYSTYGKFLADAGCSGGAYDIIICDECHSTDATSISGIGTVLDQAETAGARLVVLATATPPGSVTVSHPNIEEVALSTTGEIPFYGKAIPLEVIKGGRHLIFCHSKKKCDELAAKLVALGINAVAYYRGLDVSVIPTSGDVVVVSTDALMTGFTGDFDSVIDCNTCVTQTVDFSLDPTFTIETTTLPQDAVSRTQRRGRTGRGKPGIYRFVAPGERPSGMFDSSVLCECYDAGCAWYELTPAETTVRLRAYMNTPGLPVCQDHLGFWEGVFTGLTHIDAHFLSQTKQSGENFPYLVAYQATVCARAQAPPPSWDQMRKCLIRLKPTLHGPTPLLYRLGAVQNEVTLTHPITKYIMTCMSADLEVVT", "experiment": "Recombinant HCV NS3/4A protease complex FRET peptide assay, BMS strain", "type": "biochemical", "details": "NS3/4A BMS Strain", "from_the_text": "The purpose of this in vitro assay was to measure the inhibition of HCV NS3 protease complexes, derived from the BMS, H77C or J416S strains, as described below, by compounds of the present invention.\nSerum from an HCV-infected patient was obtained from Dr. T. Wright, San Francisco Hospital. An engineered full-length cDNA (compliment deoxyribonucleic acid) template of the HCV genome (BMS strain) was constructed from DNA fragments obtained by reverse transcription-PCR (RT-PCR) of serum RNA (ribonucleic acid) and using primers selected on the basis of homology between other genotype 1a strains. […] The infectious clones, H77C (1a genotype) and J4L6S (1b genotype) were obtained from R. Purcell (NIH) and the sequences are published in Genbank (AAB67036, see Yanagi,M., Purcell,R. H., Emerson,S. U. and Bukh,J. Proc. Natl. Acad. Sci. U.S.A. 94(16),8738-8743 (1997); AF054247, see Yanagi,M., St Claire,M., Shapiro,M., Emerson,S. U., Purcell,R. H. and Bukh,J, Virology 244 (1), 161-172. (1998)).\nThe BMS, H77C and J4L6S strains were used for production of recombinant NS3/4A protease complexes. DNA encoding the recombinant HCV NS3/4A protease complex (amino acids 1027 to 1711) for these strains were manipulated as described by P. Gallinari et al. (see Gallinari P, Paolini C, Brennan D, Nardi C, Steinkuhler C, De Francesco R. Biochemistry. 38(17):5620-32, (1999)). Briefly, a three-lysine solubilizing tail was added at the 3′-end of the NS4A coding region. The cysteine in the P1 position of the NS4A-NS4B cleavage site (amino acid 1711) was changed to a glycine to avoid the proteolytic cleavage of the lysine tag. Furthermore, a cysteine to serine mutation was introduced by PCR at amino acid position 1454 to prevent the autolytic cleavage in the NS3 helicase domain. The variant DNA fragment was cloned in the pET21b bacterial expression vector (Novagen) and the NS3/4A complex was expressed in Escherichia. coli strain BL21 (DE3) (Invitrogen) following the protocol described by P. Gallinari et al. (see Gallinari P, Brennan D, Nardi C, Brunetti M, Tomei L, Steinkuhler C, De Francesco R., J. Virol. 72(8):6758-69 (1998)) with modifications. Briefly, NS3/4A expression was induced with 0.5 mM Isopropyl β-D-1-thiogalactopyranoside (IPTG) for 22 hr at 20° C. […] The cells were resuspended in lysis buffer (10 mL/g) consisting of 25 mM N-(2-Hydroxyethyl)Piperazine-N′-(2-Ethane Sulfonic acid) (HEPES), pH 7.5, 20% glycerol, 500 mM Sodium Chloride (NaCl), 0.5% Triton-X100, 1 ug/ml lysozyme, 5 mM Magnesium Chloride (MgCl2), 1 ug/ml DnaseI, 5 mM β-Mercaptoethanol (βME), Protease inhibitor—Ethylenediamine Tetraacetic acid (EDTA) free (Roche), homogenized and incubated for 20 mins at 4° C. The homogenate was sonicated and clarified by ultra-centrifugation at 235000 g for 1 hr at 4° C. Imidazole was added to the supernatant to a final concentration of 15 mM and the pH adjusted to 8.0. The crude protein extract was loaded on a Nickel-Nitrilotriacetic acid (Ni-NTA) column pre-equilibrated with buffer B (25 mM HEPES, pH 8.0, 20% glycerol, 500 mM NaCl, 0.5% Triton-X100, 15 mM imidazole, 5 mM βME). The sample was loaded at a flow rate of 1 mL/min. The column was washed with 15 column volumes of buffer C (same as buffer B except with 0.2% Triton-X100). The protein was eluted with 5 column volumes of buffer D (same as buffer C except with 200 mM Imidazole).\nNS3/4A protease complex-containing fractions were pooled and loaded on a desalting column Superdex-S200 pre-equilibrated with buffer D (25 mM HEPES, pH7.5, 20% glycerol, 300 mM NaCl, 0.2% Triton-X100, 10 mM βME)."}, "[2]": {"tested_on": "HCV replicon in Huh7 cells", "experiment": "HCV replicon cell-based assay (FRET)", "details": "HCV replicon, read-out: EC50 range", "from_the_text": "An HCV replicon whole cell system was established as described by Lohmann V, Korner F, Koch J, Herian U, Theilmann L, Bartenschlager R., Science 285(5424):110-3 (1999). This system enabled us to evaluate the effects of our HCV Protease compounds on HCV RNA replication. Briefly, using the HCV strain 1B sequence described in the Lohmann paper (Assession number: AJ238799), an HCV cDNA was generated encoding the 5′ internal ribosome entry site (IRES), the neomycin resistance gene, the EMCV (encephalomyocarditis viurs)-IRES and the HCV nonstructural proteins, NS3-NS5B, and 3′ non-translated region (NTR). In vitro transcripts of the cDNA were transfected into the human hepatoma cell line, Huh7. […] Resulting cell lines were characterized for positive and negative strand RNA production and protein production over time.\nHuh7 cells, constitutively expressing the HCV replicon, were grown in Dulbecco's Modified Eagle Media (DMEM) containing 10% Fetal calf serum (FCS) and 1 mg/ml G418 (Gibco-BRL). Cells were seeded the night before (1.5×10^4 cells/well) in 96-well tissue-culture sterile plates. Compound and no compound controls were prepared in DMEM containing 4% FCS, 1:100 Penicillin/Streptomysin, 1:100 L-glutamine and 5% DMSO in the dilution plate (0.5% DMSO final concentration in the assay). Compound/DMSO mixes were added to the cells and incubated for 4 days at 37° C. After 4 days, plates were rinsed thoroughly with Phosphate-Buffered Saline (PBS) (3 times 150 μl). The cells were lysed with 25 μl of a lysis assay reagent containing the FRET peptide (RET S1, as described for the in vitro enzyme assay). The lysis assay reagent was made from 5× cell Luciferase cell culture lysis reagent(Promega #E153A) diluted to 1× with distilled water, NaCl added to 150 mM final, the FRET peptide diluted to 10 μM final from a 2 mM stock in 100% DMSO. The plate was then placed into the Cytofluor 4000 instrument which had been set to 340 nm excitation/490 emission, automatic mode for 21 cycles and the plate read in a kinetic mode. EC50 determinations were carried out as described for the IC50 determinations."}}, "note": "Like-named read-outs stand apart in the source and are kept apart here."}
{"smiles": "C=C[C@@H]1C[C@]1(NC(=O)[C@@H]1C[C@@H](Oc2cc(-c3ccccc3)nc3cc(OC)ccc23)CN1C(=O)[C@@H](NC(=O)OC(C)(C)C)C(C)(C)C)C(=O)NS(=O)(=O)C1(CCCC)CC1", "note": "[Compound 30, {1-[2-[1-(1-Butyl-cyclopropanesulfonylaminocarbonyl)-2-vinyl-cyclopropylcarbamoyl]-4-(7-methoxy-2-phenyl-quinolin-4-yloxy)-pyrrolidine-1-carbonyl]-2,2-dimethyl-propyl}-carbamic acid tert-butyl ester]", "values": [{"measurement": "IC50", "setting": "[1]; IC50 range", "result": "< 50", "unit": "nM"}, {"measurement": "EC50", "setting": "[2]; Hepatitis C virus, Huh-7", "result": "< 50", "unit": "nM"}]}
{"smiles": "C=C[C@@H]1C[C@]1(NC(=O)[C@@H]1C[C@@H](Oc2cc(-c3ccccc3)nc3cc(OC)ccc23)CN1C(=O)[C@@H](NC(=O)OC(C)(C)C)C(C)(C)C)C(=O)NS(=O)(=O)C1(CC(C)C)CC1", "note": "[Compound 31, {1-[2-[1-(1-Isobutyl-cyclopropanesulfonylaminocarbonyl)-2-vinyl-cyclopropylcarbamoyl]-4-(7-methoxy-2-phenyl-quinolin-4-yloxy)-pyrrolidine-1-carbonyl]-2,2-dimethyl-propyl}-carbamic acid tert-butyl ester]", "values": [{"measurement": "IC50", "setting": "[1]; IC50 range", "result": "< 50", "unit": "nM"}, {"measurement": "EC50", "setting": "[2]; Hepatitis C virus, Huh-7", "result": "50 to 500", "unit": "nM"}]}
{"smiles": "C=C[C@@H]1C[C@]1(NC(=O)[C@@H]1C[C@@H](Oc2cc(-c3ccccc3)nc3cc(OC)ccc23)CN1C(=O)[C@@H](NC(=O)OC(C)(C)C)C(C)(C)C)C(=O)NS(=O)(=O)C1(CC2CCC2)CC1", "note": "[Compound 32, {1-[2-[1-(1-Cyclobutylmethyl-cyclopropanesulfonylaminocarbonyl)-2-vinyl-cyclopropylcarbamoyl]-4-(7-methoxy-2-phenyl-quinolin-4-yloxy)-pyrrolidine-1-carbonyl]-2,2-dimethyl-propyl}-carbamic acid tert-butyl ester]", "values": [{"measurement": "IC50", "setting": "[1]; IC50 range", "result": "< 50", "unit": "nM"}, {"measurement": "EC50", "setting": "[2]; Hepatitis C virus, Huh-7", "result": "< 50", "unit": "nM"}]}
{"smiles": "C=CCCCCCCCCC1(S(=O)(=O)NC(=O)C2(NC(=O)C3CC(Oc4cc(-c5ccccc5)nc5cc(OC)ccc45)CN3C(=O)C(NC(=O)OC(C)(C)C)C(C)(C)C)CC2C=C)CC1", "note": "(centres unmarked) [Compound 33]", "values": [{"measurement": "IC50", "setting": "[1]; read-out: IC50 range", "result": "< 50", "unit": "nM"}, {"measurement": "EC50", "setting": "[2]", "result": "50 to 500", "unit": "nM"}]}
{"smiles": "C=CCCCCCCCC1(S(=O)(=O)NC(=O)C2(NC(=O)C3CC(Oc4cc(-c5ccccc5)nc5cc(OC)ccc45)CN3C(=O)C(NC(=O)OC(C)(C)C)C(C)(C)C)CC2C=C)CC1", "note": "(centres unmarked) [Compound 34, (1-{4-(7-Methoxy-2-phenyl-quinolin-4-yloxy)-2-[1-(1-non-8-enyl-cyclopropanesulfonylaminocarbonyl)-2-vinyl-cyclopropylcarbamoyl]-1-pyrrolidine-1-carbonyl}-2,2-dimethyl-propyl)-carbamic acid tert-butyl ester]", "values": [{"measurement": "IC50", "setting": "[1]; read-out: IC50 range", "result": "< 50", "unit": "nM"}, {"measurement": "EC50", "setting": "[2]", "result": "< 50", "unit": "nM"}]}
{"smiles": "C=C[C@@H]1C[C@]1(NC(=O)[C@@H]1C[C@@H](Oc2cc(-c3ccccc3)nc3cc(OC)ccc23)CN1C(=O)[C@@H](NC(=O)OC(C)(C)C)C(C)(C)C)C(=O)NS(=O)(=O)C1(CCOC)CC1", "note": "[Compound 35, {1-[2-{1-[1-(2-Methoxy-ethyl)-cyclopropanesulfonylaminocarbonyl]-2-vinyl-cyclopropylcarbamoyl}-4-(7-methoxy-2-phenyl-quinolin-4-yloxy)-pyrrolidine-1-carbonyl]-2,2-dimethyl-propyl}-carbamic acid tert-butyl ester]", "values": [{"measurement": "IC50", "setting": "[1]; IC50 range", "result": "< 50", "unit": "nM"}, {"measurement": "EC50", "setting": "[2]; Hepatitis C virus, Huh-7", "result": "< 50", "unit": "nM"}]}
{"smiles": "C=C[C@@H]1C[C@]1(NC(=O)[C@@H]1C[C@@H](Oc2cc(-c3ccccc3)nc3cc(OC)ccc23)CN1C(=O)[C@@H](NC(=O)OC(C)(C)C)C(C)(C)C)C(=O)NS(=O)(=O)C1(CCOCc2ccccc2)CC1", "note": "[Compound 36, {1-[2-{1-[1-(2-Benzyloxy-ethyl)-cyclopropanesulfonylaminocarbonyl]-2-vinyl-cyclopropylcarbamoyl}-4-(7-methoxy-2-phenyl-quinolin-4-yloxy)-pyrrolidine-1-carbonyl]-2,2-dimethyl-propyl}-carbamic acid tert-butyl ester]", "values": [{"measurement": "IC50", "setting": "[1]; IC50 range", "result": "< 50", "unit": "nM"}, {"measurement": "EC50", "setting": "[2]; Hepatitis C virus, Huh-7", "result": "< 50", "unit": "nM"}]}
{"smiles": "C=C[C@@H]1C[C@]1(NC(=O)[C@@H]1C[C@@H](Oc2cc(-c3ccccc3)nc3cc(OC)ccc23)CN1C(=O)[C@@H](NC(=O)OC(C)(C)C)C(C)(C)C)C(=O)NS(=O)(=O)C1(COC(C)C)CC1", "note": "[Compound 37, {1-[2-[1-(1-Isopropoxymethyl-cyclopropanesulfonylaminocarbonyl)-2-vinyl-cyclopropylcarbamoyl]-4-(7-methoxy-2-phenyl-quinolin-4-yloxy)-pyrrolidine-1-carbonyl]-2,2-dimethyl-propyl}-1-carbamic acid tert-butyl ester]", "values": [{"measurement": "IC50", "setting": "[1]; IC50 range", "result": "< 50", "unit": "nM"}, {"measurement": "EC50", "setting": "[2]; Hepatitis C virus, Huh-7", "result": "< 50", "unit": "nM"}]}
{"smiles": "C=C[C@@H]1C[C@]1(NC(=O)[C@@H]1C[C@@H](Oc2cc(-c3ccccc3)nc3cc(OC)ccc23)CN1C(=O)[C@@H](NC(=O)OC(C)(C)C)C(C)(C)C)C(=O)NS(=O)(=O)C1(Cl)CC1", "note": "[Compound 38, {1-[2-[1-(1-Chloro-cyclopropanesulfonylaminocarbonyl)-2-vinyl-cyclopropylcarbamoyl]-4-(7-methoxy-2-phenyl-quinolin-4-yloxy)-pyrrolidine-1-carbonyl]-2,2-dimethyl-propyl}-carbamic acid tert-butyl ester]", "values": [{"measurement": "IC50", "setting": "[1]; IC50 range", "result": "< 50", "unit": "nM"}, {"measurement": "EC50", "setting": "[2]; Hepatitis C virus, Huh-7", "result": "< 50", "unit": "nM"}]}
{"smiles": "C=C[C@@H]1C[C@]1(NC(=O)[C@@H]1C[C@@H](Oc2cc(-c3ccccc3)nc3cc(OC)ccc23)CN1C(=O)[C@@H](NC(=O)OC(C)(C)C)C(C)(C)C)C(=O)NS(=O)(=O)C1(I)CC1", "note": "[Compound 39, {1-[2-[1-(1-Iodo-cyclopropanesulfonylaminocarbonyl)-2-vinyl-cyclopropylcarbamoyl]-4-(7-methoxy-2-phenyl-quinolin-4-yloxy)-pyrrolidine-1-carbonyl]-2,2-dimethyl-propyl}-carbamic acid tert-butyl ester]", "values": [{"measurement": "IC50", "setting": "[1]; IC50 range", "result": "< 50", "unit": "nM"}, {"measurement": "EC50", "setting": "[2]; Hepatitis C virus, Huh-7", "result": "< 50", "unit": "nM"}]}
